Assay results reported in patent publication US20180256673A1, “METHODS FOR TREATING FUNGAL INFECTIONS” (priority 2015, published 2018).
Values after ≈ are worked out from the molar mass of the structure shown.

Assays:
[1] = test system: azole-resistant Candida albicans R357 strain; test: microbe, parasite or virus in culture; type: cell-based
C. albicans NRRL Y-477 [2] = test: microbe, parasite or virus in culture; type: cell-based, Candida albicans
[3] = test system: C. glabrata ATCC 90030, ATCC 2001; test: microbe, parasite or virus in culture; type: cell-based, Candida glabrata
C. parapsilosis CP02 [4] = test: microbe, parasite or virus in culture; type: cell-based, Candida parapsilosis
C. krusei ATCC 6258 [5] = test: microbe, parasite or virus in culture; type: cell-based, Candida krusei
[6] = test system: azole-resistant Candida albicans (R357); test: Disseminated infection model in neutropenic ICR mice, kidney fungal counts (Example 10, Tables 22-23); type: in vivo
[7] = test system: Aspergillus fumigatus (ATCC 13073); test: Neutropenic mouse model of disseminated aspergillosis, survival; type: in vivo; details: in vivo
[8] = Solubility of test articles in vehicle, visual observation (Table 22); type: physicochemical
Method: Test Articles. […] Amphotericin B and fluconazole were in powder form. Amphotericin B was dissolved in 0.9% NaCl. Fluconazole was dissolved in water (WFI: water for injection).

C. albicans NRRL Y-477 [9] = test: Broth microdilution MIC (CLSI), Examples 3 and 4
Method: Antifungal susceptibility testing. […] MIC assays were performed in triplicate.

[10] = test system: C. glabrata ATCC 90030, ATCC 2001; test: Broth microdilution MIC (CLSI), Examples 3 and 4; details: for Broth MIC: 24 h, ~50% inhibition
Method: (§1) Antifungal susceptibility testing. Candida strains were cultured aerobically at 35° C. on SDA plates or in RPMI 1640 broth (pH 7.0). […] MIC assays were performed in triplicate.

C. parapsilosis CP02 [11] = test: Broth microdilution MIC (CLSI), Examples 3 and 4; details: CP02 wild-type; 24 h, ~50% inhibition
Method: as §1

C. krusei ATCC 6258 [12] = test: Broth microdilution MIC (CLSI), Examples 3 and 4; details: ATCC 6258 wild-type; 24 h, ~50% inhibition
Method: as §1

Q: Which “Susceptibility (CLSI)” value ([1]; C. albicans R357) does the source give for C[C@@H]1[C@H](O)[C@@H](C)/C=C/C=C/C=C/C=C/C=C/C=C/C=C/[C@H](O[C@@H]2O[C@H](C)[C@@H](O)[C@H](N)[C@@H]2O)C[C@@H]2O[C@](O)(C[C@@H](O)C[C@@H](O)[C@H](O)CC[C@@H](O)C[C@@H](O)CC(=O)O[C@H]1C)C[C@H](O)[C@H]2C(=O)O [AMB, amphotericin B] here?
A: The value was “S”.

Q: And the MIC ([1]; endpoint 100% inhibition)?
A: Its MIC is 0.5 µg/mL (≈ 0.541 µM).

Q: What about the MIC (C. albicans NRRL Y-477 [2]; NRRL Y-477 P20-1, selecting drug ANID, Fks1 HS1 S645Y, 48 h read) of the same compound?
A: Its MIC is 0.5 µg/mL (≈ 0.541 µM).

Q: And the MIC (C. albicans NRRL Y-477 [2]; NRRL Y-477 P20-1, selecting drug CAS)?
A: Its MIC is 0.25 µg/mL (≈ 0.271 µM).

Q: And the MIC (C. albicans NRRL Y-477 [2]; NRRL Y-477 P20-1, selecting drug CMP1, 48 h read)?
A: The MIC was 0.5 µg/mL (≈ 0.541 µM).

Q: What about the MIC ([3]; ATCC 2001 P20-2, selecting drug ANID, Fks1 HS1 D632Y) of the same compound?
A: Its MIC is 1 µg/mL (≈ 1.08 µM).

Q: What about the MIC ([3]; ATCC 2001 P20-2, selecting drug CAS) of the same compound?
A: Its MIC is 0.5 µg/mL (≈ 0.541 µM).

Q: And the MIC ([3]; ATCC 2001 P20-2, selecting drug CMP1)?
A: The MIC was 0.25 µg/mL (≈ 0.271 µM).

Q: And the MIC ([3]; ATCC 90030 P20-1, selecting drug ANID, Fks2 HS1 D666I, 48 h read)?
A: Its MIC is 0.5 µg/mL (≈ 0.541 µM).

Q: And the MIC ([3]; ATCC 90030 P20-1, selecting drug CAS, Fks2 HS1 F659I D666Y, 48 h read)?
A: Its MIC is 0.25 µg/mL (≈ 0.271 µM).

Q: And the MIC ([3]; ATCC 90030 P20-2, selecting drug CMP1)?
A: The MIC was 0.5 µg/mL (≈ 0.541 µM).

Q: And the MIC (C. parapsilosis CP02 [4]; CP02 P20-1, selecting drug ANID)?
A: The MIC was 0.5 µg/mL (≈ 0.541 µM).

Q: What about the MIC (C. parapsilosis CP02 [4]; CP02 P20-1, selecting drug CAS) of the same compound?
A: Its MIC is 0.5 µg/mL (≈ 0.541 µM).

Q: What about the MIC (C. parapsilosis CP02 [4]; CP02 P20-1, selecting drug CMP1) of the same compound?
A: The MIC was 0.5 µg/mL (≈ 0.541 µM).

Q: What about the MIC (C. krusei ATCC 6258 [5]; ATCC 6258 P20-2, selecting drug ANID) of the same compound?
A: Its MIC is 1 µg/mL (≈ 1.08 µM).

Q: What about the MIC (C. krusei ATCC 6258 [5]; ATCC 6258 P20-2, selecting drug CAS, Fks1 HS2 I1366S) of the same compound?
A: Its MIC is 1 µg/mL (≈ 1.08 µM).

Q: And the MIC (C. krusei ATCC 6258 [5]; ATCC 6258 P20-2, selecting drug CMP1, Fks1 HS2 I1366S)?
A: Its MIC is 1 µg/mL (≈ 1.08 µM).

Q: And the “reduction in fungal counts” value ([6]; 3 mg/kg IV once, 72 hr time point)?
A: Its value is “two log reduction”.

Q: What about the “antimicrobial effect versus vehicle (one-way ANOVA, Dunnett's test)” value ([6]; 48 and 72 hr after infection, Compound 1 3, 10, 30 mg/kg IP, amphotericin B 1 and 3 mg/kg IV, fluconazole 20 mg/kg PO) of the same compound?
A: Its value is “Significant effects”.

Q: What about the survival versus vehicle [7] of the same compound?
A: The survival versus vehicle was “significantly longer survival than vehicle”.

Q: What about the Solubility [8] of the same compound?
A: Its Solubility is “S”.

Q: What about the MIC (C. albicans NRRL Y-477 [9]; NRRL Y-477 spontaneous mutant, Fks1 HS1 S645P) of the same compound?
A: The MIC was 0.25 µg/mL (≈ 0.271 µM).

Q: What about the “Broth MIC” value (C. albicans NRRL Y-477 [9]; NRRL Y-477 wild-type, 24 h, ~50% inhibition) of the same compound?
A: Its value is 0.5 µg/mL.

Q: And the MIC ([10]; ATCC 2001 spontaneous mutant, Fks2 HS1 D666N)?
A: The MIC was 0.5 µg/mL (≈ 0.541 µM).

Q: And the MIC ([10]; ATCC 2001 spontaneous mutant, Fks2 HS1 D666Y)?
A: Its MIC is 0.5 µg/mL (≈ 0.541 µM).

Q: What about the MIC ([10]; ATCC 2001 spontaneous mutant, Fks2 HS1 R665G) of the same compound?
A: Its MIC is 0.25 µg/mL (≈ 0.271 µM).

Q: And the MIC ([10]; ATCC 2001 spontaneous mutant, Fks2 HS1 S663F)?
A: Its MIC is 0.25 µg/mL (≈ 0.271 µM).

Q: What about the MIC ([10]; ATCC 2001 spontaneous mutant, Fks2 HS1 ΔF659) of the same compound?
A: The MIC was 0.25 µg/mL (≈ 0.271 µM).

Q: And the MIC ([10]; ATCC 2001 spontaneous mutant, Fks2 HS2 R1378S)?
A: The MIC was 0.25 µg/mL (≈ 0.271 µM).

Q: And the “Broth MIC” value ([10]; ATCC 2001 wild-type)?
A: Its value is 0.5 µg/mL.

Q: What about the MIC ([10]; ATCC 90030 spontaneous mutant, Fks2 HS1 D666H) of the same compound?
A: The MIC was 0.5 µg/mL (≈ 0.541 µM).

Q: And the MIC ([10]; ATCC 90030 spontaneous mutant, Fks2 HS1 ΔF659)?
A: Its MIC is 0.5 µg/mL (≈ 0.541 µM).

Q: And the “Broth MIC” value ([10]; ATCC 90030 wild-type)?
A: Its value is 0.5 µg/mL.

Q: What about the “Broth MIC” value (C. parapsilosis CP02 [11]) of the same compound?
A: The value was 0.5 µg/mL.

Q: What about the “Broth MIC” value (C. krusei ATCC 6258 [12]) of the same compound?
A: Its value is 1 µg/mL.
